Legend:
[1] = tested on: TNBC metastasis after surgical resection; settings: after 50 days post-insertion of the drug/hydrogel patch at the resection site; mice; cited from earlier work
[2] = tested on: 4T1-Luc2 triple-negative breast cancer orthotopic tumor resection model; experiment: Antitumor efficacy via intraperitoneal injection in TNBC orthotopic animal model (tumor resection model); type: in vivo, female Balb/c mice
4T1 Luc2 cell line = experiment: Intracellular uptake by flow cytometry in 4T1 Luc2 cells; type: cell-based, mouse; settings: flow cytometry of 4T1 cells
Method: In this experiment, 4T1 Luc2 cell line (ATCC, USA) was used and the cells were cultured using the same method described in 3-1-1.
The medium was replaced with RPMI medium containing 5% FBS and treated with drugs for additional 2, 4, 6, 24 hours, and then DAPI staining was performed after the reaction was completed. The finished samples were compared using a flow cytometer (Beckman Coulter CytoFlex (3 lasers)) to measure the degree of fluorescence expression against the control cell line.

In the case of `Nc1ncnc2c1ncn2C1O[C@@H]2CO[P@@](=O)([S-])O[C@H]3[C@@H](O)[C@H](n4cnc5c(N)ncnc54)O[C@@H]3CO[P@@](=O)([S-])O[C@@H]1[C@@H]2O.[Na+].[Na+]` (stereo partly shown) [STING-RR], the survival rate [1] is given as 60%.
For `Nc1ccn([C@@H]2O[C@H](CO)[C@@H](O)C2(F)F)c(=O)n1` [gemcitabine, 2′,2′-difluorodeoxycytidine, reference compound], the “time within which all mice died (lung metastasis)” value ([2]; 1 mg intraperitoneal every other day, 10 times, after tumor resection, 5 mice) was no more than 30 days.
In the case of “(Gem)2-[TGG]4[TTG][TGG]5 (NNTGGTGGTGGTGGTTGTGGTGGTGGTGGTGG; two 5' gemcitabine; modified_base 1 OTHER; 2', 2'-difluoro deoxycytidine; modified_base 2 OTHER) [IO101L, modified oligonucleotide, two gemcitabine at the 5′ end]”, the “intracellular influx compared with the IO101L-control group” value (4T1 Luc2 cell line; FIG. 4) is reported as “significantly superior”, the “mice with confirmed lung metastasis” value ([2]; 2 mg intraperitoneal every other day, 10 times, after tumor resection) is reported as 3 out of 7 and the “inhibition of cancer metastasis compared to positive control gemcitabine” value ([2]; intraperitoneal, post-TNBC tumor resection) is reported as “significantly inhibited cancer metastasis”. For the same molecule, the “mice surviving until day 76” value ([2]; mouse, in vivo, ip) was 4 out of 7.
In the case of “Cy5-(Gem)(Gem)[TGG]4[TTG][TGG]5 [Cy5-labeled IO101L]”, the “Cy5-labeled IO101L found to enter the cells” value (4T1 Luc2 cell line; after 24 hours) is reported as “over 80%”.
